According to ChEMBL document CHEMBL3885881, “DrugMatrix”:

Organism: Rattus norvegicus
Experiment: DrugMatrix - Regimen: Daily Repeat
Type: toxicity, organism-based, Sprague-Dawley
Design: regimen Daily Repeat, gender Male, age 6-8 weeks
Settings: in vivo, iv, vehicle 100 % SALINE; for ABSOLUTE BASOPHIL / ABSOLUTE EOSINOPHIL / ABSOLUTE LYMPHOCYTE / ABSOLUTE MONOCYTE / ABSOLUTE SEGMENTED NEUTROPHIL / BASOPHIL / EOSINOPHIL / ERYTHROCYTE COUNT / HEMATOCRIT / HEMOGLOBIN / LEUKOCYTE COUNT / LYMPHOCYTE / MEAN CORPUSCULAR HEMOGLOBIN / MEAN CORPUSCULAR HEMOGLOBIN CONCENTRATION / MEAN CORPUSCULAR VOLUME / MONOCYTE / NEUTROPHIL / NUCLEATED RED BLOOD CELLS / PLATELET COUNT: tissue Blood; for ALANINE AMINOTRANSFERASE / ALBUMIN / ALKALINE PHOSPHATASE / ASPARTATE AMINOTRANSFERASE / BLOOD UREA NITROGEN / CARBON DIOXIDE / CHLORIDE / CHOLESTEROL / CREATINE PHOSPHOKINASE / CREATININE / GLUCOSE / LACTATE DEHYDROGENASE / LIPASE / PHOSPHORUS / POTASSIUM / SODIUM / TOTAL BILIRUBIN / TOTAL PROTEIN / URIC ACID: tissue Plasma
[1] = 0.5 mg/kg, 72 h, dose level Low, time 3 day
[2] = 0.5 mg/kg, 120 h, dose level Low, time 5 day
[3] = […], 72 h, dose 2.5 mg/Kg, dose level High, time 3 day
[4] = […], 120 h, dose 2.5 mg/Kg, dose level High, time 5 day

## CC[N+](CC)(CC)CCOc1cccc(OCC[N+](CC)(CC)CC)c1OCC[N+](CC)(CC)CC.[I-].[I-].[I-] [GALLAMINE TRIETHIODIDE]
[1]
  ABSOLUTE BASOPHIL: 0 CELLS/uL
  ABSOLUTE EOSINOPHIL: 0 CELLS/uL
  ABSOLUTE LYMPHOCYTE: 12252.67 CELLS/uL
  ABSOLUTE MONOCYTE: 379 CELLS/uL
  ABSOLUTE SEGMENTED NEUTROPHIL: 1435 CELLS/uL
  BASOPHIL: 0%
  EOSINOPHIL: 0%
  ERYTHROCYTE COUNT: 5.22 x10E6/uL
  HEMATOCRIT: 33.63%
  HEMOGLOBIN: 13.53 G/DL
  LEUKOCYTE COUNT: 14.07 x10E3/uL
  LYMPHOCYTE: 87%
  MEAN CORPUSCULAR HEMOGLOBIN: 25.93 pg
  MEAN CORPUSCULAR HEMOGLOBIN CONCENTRATION: 40.3 G/DL
  MEAN CORPUSCULAR VOLUME: 64.4 fL
  MONOCYTE: 2.67%
  NEUTROPHIL: 10.33%
  NUCLEATED RED BLOOD CELLS: 0.33 /100WBC
  PLATELET COUNT: 1175 x10E3/uL
  ALANINE AMINOTRANSFERASE: 52 u/L
  ALBUMIN: 4.07 G/DL
  ALKALINE PHOSPHATASE: 372 u/L
  ASPARTATE AMINOTRANSFERASE: 79.33 u/L
  BLOOD UREA NITROGEN: 15.33 mg/dL
  CARBON DIOXIDE: 23.33 mmol/L
  CHLORIDE: 104.33 MEQ/L
  CHOLESTEROL: 71.33 mg/dL
  CREATINE PHOSPHOKINASE: 361.33 u/L
  CREATININE: 0.14 mg/dL
  GLUCOSE: 161.67 mg/dL
  LACTATE DEHYDROGENASE: 163 u/L
  LIPASE: 9 u/L
  PHOSPHORUS: 13.97 mg/dL
  POTASSIUM: 6.65 MEQ/L
  SODIUM: 146.57 MEQ/L
  TOTAL BILIRUBIN: 0.2 mg/dL
  TOTAL PROTEIN: 5.67 G/DL
  URIC ACID: 1.4 mg/dL
[2]
  ABSOLUTE BASOPHIL: 0 CELLS/uL
  ABSOLUTE EOSINOPHIL: 43 CELLS/uL
  ABSOLUTE LYMPHOCYTE: 13831.33 CELLS/uL
  ABSOLUTE MONOCYTE: 112.67 CELLS/uL
  ABSOLUTE SEGMENTED NEUTROPHIL: 1346.33 CELLS/uL
  BASOPHIL: 0%
  EOSINOPHIL: 0.33%
  ERYTHROCYTE COUNT: 5.96 x10E6/uL
  HEMATOCRIT: 37.33%
  HEMOGLOBIN: 14.57 G/DL
  LEUKOCYTE COUNT: 15.33 x10E3/uL
  LYMPHOCYTE: 90.33%
  MEAN CORPUSCULAR HEMOGLOBIN: 24.5 pg
  MEAN CORPUSCULAR HEMOGLOBIN CONCENTRATION: 39.03 G/DL
  MEAN CORPUSCULAR VOLUME: 62.7 fL
  MONOCYTE: 0.67%
  NEUTROPHIL: 8.67%
  NUCLEATED RED BLOOD CELLS: 0.33 /100WBC
  PLATELET COUNT: 1517.33 x10E3/uL
  ALANINE AMINOTRANSFERASE: 52.33 u/L
  ALBUMIN: 4.17 G/DL
  ALKALINE PHOSPHATASE: 369.67 u/L
  ASPARTATE AMINOTRANSFERASE: 80.67 u/L
  BLOOD UREA NITROGEN: 15.67 mg/dL
  CARBON DIOXIDE: 22 mmol/L
  CHLORIDE: 104 MEQ/L
  CHOLESTEROL: 61.67 mg/dL
  CREATINE PHOSPHOKINASE: 215 u/L
  CREATININE: 0.26 mg/dL
  GLUCOSE: 161 mg/dL
  LACTATE DEHYDROGENASE: 282 u/L
  LIPASE: 10 u/L
  PHOSPHORUS: 14.53 mg/dL
  POTASSIUM: 7.06 MEQ/L
  SODIUM: 146.97 MEQ/L
  TOTAL BILIRUBIN: 0.2 mg/dL
  TOTAL PROTEIN: 5.93 G/DL
  URIC ACID: 1.57 mg/dL
[3]
  ABSOLUTE BASOPHIL: 0 CELLS/uL
  ABSOLUTE EOSINOPHIL: 0 CELLS/uL
  ABSOLUTE LYMPHOCYTE: 15571.67 CELLS/uL
  ABSOLUTE MONOCYTE: 0 CELLS/uL
  ABSOLUTE SEGMENTED NEUTROPHIL: 1428.33 CELLS/uL
  BASOPHIL: 0%
  EOSINOPHIL: 0%
  ERYTHROCYTE COUNT: 5.32 x10E6/uL
  HEMATOCRIT: 34.57%
  HEMOGLOBIN: 13.83 G/DL
  LEUKOCYTE COUNT: 17 x10E3/uL
  LYMPHOCYTE: 91.67%
  MEAN CORPUSCULAR HEMOGLOBIN: 25.97 pg
  MEAN CORPUSCULAR HEMOGLOBIN CONCENTRATION: 40 G/DL
  MEAN CORPUSCULAR VOLUME: 64.93 fL
  MONOCYTE: 0%
  NEUTROPHIL: 8.33%
  NUCLEATED RED BLOOD CELLS: 1 /100WBC
  PLATELET COUNT: 1293 x10E3/uL
  ALANINE AMINOTRANSFERASE: 50 u/L
  ALBUMIN: 4.23 G/DL
  ALKALINE PHOSPHATASE: 314.67 u/L
  ASPARTATE AMINOTRANSFERASE: 74 u/L
  BLOOD UREA NITROGEN: 15.67 mg/dL
  CARBON DIOXIDE: 22.33 mmol/L
  CHLORIDE: 104.33 MEQ/L
  CHOLESTEROL: 65.67 mg/dL
  CREATINE PHOSPHOKINASE: 204 u/L
  CREATININE: 0.27 mg/dL
  GLUCOSE: 155 mg/dL
  LACTATE DEHYDROGENASE: 158 u/L
  LIPASE: 11.33 u/L
  PHOSPHORUS: 12.97 mg/dL
  POTASSIUM: 6.92 MEQ/L
  SODIUM: 147.33 MEQ/L
  TOTAL BILIRUBIN: 0.17 mg/dL
  TOTAL PROTEIN: 6 G/DL
  URIC ACID: 1.53 mg/dL
[4]
  ABSOLUTE BASOPHIL: 0 CELLS/uL
  ABSOLUTE EOSINOPHIL: 0 CELLS/uL
  ABSOLUTE LYMPHOCYTE: 13793.67 CELLS/uL
  ABSOLUTE MONOCYTE: 142.67 CELLS/uL
  ABSOLUTE SEGMENTED NEUTROPHIL: 830.33 CELLS/uL
  BASOPHIL: 0%
  EOSINOPHIL: 0%
  ERYTHROCYTE COUNT: 5.65 x10E6/uL
  HEMATOCRIT: 35.97%
  HEMOGLOBIN: 14.53 G/DL
  LEUKOCYTE COUNT: 14.77 x10E3/uL
  LYMPHOCYTE: 93.33%
  MEAN CORPUSCULAR HEMOGLOBIN: 25.73 pg
  MEAN CORPUSCULAR HEMOGLOBIN CONCENTRATION: 40.4 G/DL
  MEAN CORPUSCULAR VOLUME: 63.63 fL
  MONOCYTE: 1%
  NEUTROPHIL: 5.67%
  NUCLEATED RED BLOOD CELLS: 0.33 /100WBC
  PLATELET COUNT: 1259.67 x10E3/uL
  ALANINE AMINOTRANSFERASE: 54 u/L
  ALBUMIN: 4.23 G/DL
  ALKALINE PHOSPHATASE: 276.67 u/L
  ASPARTATE AMINOTRANSFERASE: 81.33 u/L
  BLOOD UREA NITROGEN: 15.67 mg/dL
  CARBON DIOXIDE: 21.33 mmol/L
  CHLORIDE: 105 MEQ/L
  CHOLESTEROL: 56.33 mg/dL
  CREATINE PHOSPHOKINASE: 248 u/L
  CREATININE: 0.19 mg/dL
  GLUCOSE: 147 mg/dL
  LACTATE DEHYDROGENASE: 275.33 u/L
  LIPASE: 10 u/L
  PHOSPHORUS: 12.67 mg/dL
  POTASSIUM: 6.58 MEQ/L
  SODIUM: 146.13 MEQ/L
  TOTAL BILIRUBIN: 0.2 mg/dL
  TOTAL PROTEIN: 6.13 G/DL
  URIC ACID: 1.47 mg/dL
